Measured values taken from BigSolDB 2.1.

O=C(O)COc1ccc2ccccc2c1
solubility (mole fraction)
Conditions | 278.15 K | 283.15 K | 288.15 K | 293.15 K | 298.15 K | 303.15 K | 308.15 K | 313.15 K | 318.15 K | 323.15 K
in acetone | 0.038 | 0.0427 | 0.0481 | 0.0543 | 0.0613 | 0.0693 | 0.0785 | 0.089 | 0.101 | 0.115
in acetonitrile | 0.00475 | 0.00574 | 0.00695 | 0.0084 | 0.0101 | 0.0123 | 0.0148 | 0.0178 | 0.0214 | 0.0258
in ethanol | 0.0128 | 0.0152 | 0.0181 | 0.0217 | 0.0261 | 0.0315 | 0.0383 | 0.0469 | 0.0582 | 0.0728
in ethyl acetate | 0.0145 | 0.0167 | 0.0192 | 0.0221 | 0.0255 | 0.0294 | 0.034 | 0.0393 | 0.0455 | 0.0527
in isobutanol | 0.00557 | 0.00685 | 0.00854 | 0.0106 | 0.0132 | 0.0165 | 0.0208 | 0.0262 | 0.0333 | 0.0422
in isopropanol | 0.00742 | 0.00922 | 0.0115 | 0.0144 | 0.0171 | 0.0217 | 0.0262 | 0.03 | 0.0359 | 0.0407
in isopropyl acetate | 0.0105 | 0.0121 | 0.014 | 0.0162 | 0.0187 | 0.0216 | 0.025 | 0.029 | 0.0336 | 0.039
in methanol | 0.0132 | 0.0157 | 0.0188 | 0.0227 | 0.0276 | 0.0339 | 0.0415 | 0.052 | 0.0656 | 0.0846
in methyl acetate | 0.0156 | 0.0181 | 0.021 | 0.0243 | 0.0283 | 0.0329 | 0.0382 | 0.0445 | 0.0517 | 0.0602
in n-pentanol | 0.0114 | 0.0137 | 0.0164 | 0.019 | 0.0242 | 0.0294 | 0.0362 | 0.0433 | 0.0526 | 0.0691
in n-propanol | 0.0101 | 0.012 | 0.0146 | 0.0178 | 0.0214 | 0.0273 | 0.0324 | 0.04 | 0.0506 | 0.0635
in n-propyl acetate | 0.0123 | 0.0142 | 0.0164 | 0.0189 | 0.0219 | 0.0253 | 0.0293 | 0.0339 | 0.0393 | 0.0454
